{"source": "patent US20070238696A1", "about": "“Dosage unit for cardioprotection” (priority 2000, published 2007)", "origin": "cited, not measured here", "conditions": "men, median intake 419 IU/day compared to median intake 6 IU/day; followed for four years"}
{"substance": "vitamin E", "values": [{"measurement": "relative risk reduction", "value": 44, "unit": "%"}]}
